System: HaCaT cells
Test: Cellular viability of HaCaT cells by MTS colorimetric assay
Type: cell-based, human
Conditions: 24 hours
Procedure: The aim of this study was to evaluate in vitro the effect of GExtract NdT (obtained in Example 1) on the viability of the human keratinocyte cell line HaCaT. The evaluation was performed on cells exposed to GExtract NdT at a dilution of 2% in complete medium for 24 hours. The cellular viability was measured by MTS colorimetric essay through the absorbance measurement obtained from the conversion of a bioreduced tertazolium compound from viable cells into a coloured formazan soluble in the culture medium. The HaCaT cells were exposed for 24 hours to 2% of GExtract NdT of and Triton-X 100 and subsequently the viability was evaluated by MTS assay.

TRITON-X 100
Concentration from which the surfactant lysed all the cells: ≥ 0.01% | % CTR (cell viability, percentage normalized on the control group) (0.005% (v/v)): 52.098% | % CTR (cell viability, percentage normalized on the control group) (0.01% (v/v)): 0% | % CTR (cell viability, percentage normalized on the control group) (0.05% (v/v)): 0% | % CTR (cell viability, percentage normalized on the control group) (0.5% (v/v)): 0%
